Laboratory results: the supplement of paper PMC8372320

Experiment: photocatalytic hydrogen evolution rate (per 5 mg catalyst); higher = more photocatalytic H2 evolution; extreme values may be limits of the assay
Conditions: catalyst mass (mg): 5; Pt cocatalyst (wt%): 3; sacrificial medium: triethylamine/methanol/water 1:1:1
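Note: aromatic molecules in triethylamine/methanol/water with Pt photoreduced in situ, irradiated 3 h under a 1 sun AM 1.5G solar simulator (350–1000 nm), H2 quantified by headspace gas chromatography; listed molecule itself used as the photocatalyst at 5 mg per vial.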

SMILES | photocatalytic hydrogen evolution rate [µmol/h]
C(#Cc1ccccc1)c1ccccc1 | 0
N#Cc1ccc(Cc2ccc(C#N)cc2)cc1 | 0
BrCc1cc(Br)cc(Br)c1 | 0
Brc1cc2cc3sc(Br)cc3cc2s1 | 0
O=Cc1ccc(-c2ccc(C=O)s2)s1 | 1.18
Cc1cnc(C#N)c(C#N)n1 | 0
N#Cc1cncc(-c2cncc(C#N)c2)c1 | 0
BrCc1ccc(CBr)cc1 | 0
N#Cc1ccc(C=O)cc1 | 0.136
CC1(C)c2cc(Br)ccc2-c2ccc(Br)cc21 | 0.0799
O=C(O)c1ccc(-c2ccc(-c3cc(-c4ccc(-c5ccc(C(=O)O)cc5)cc4)cc(-c4ccc(-c5ccc(C(=O)O)cc5)cc4)c3)cc2)cc1 | 0
O=C1NC(=O)c2ccc3c4ccc5c6c(ccc(c7ccc1c2c73)c64)C(=O)NC5=O | 0
O=C(O)c1ccc2cc(C(=O)O)ccc2c1 | 0
O=C1C=C(Br)C(=O)C=C1Br | 0
O=Cc1ccc(N2CCCC2)cc1 | 0.173
c1ccc(C(c2ccccc2)(c2ccccc2)c2ccccc2)cc1 | 0
Cc1c2ccccc2c(C)c2ccccc12 | 0.68
CC1(C)OB(c2ccc3c4ccc(B5OC(C)(C)C(C)(C)O5)cc4n(-c4ccccc4)c3c2)OC1(C)C | 0.0133
O=[N+]([O-])c1cc([N+](=O)[O-])c(F)cc1F | 0
Cc1cc(C=O)c(O)c(C=O)c1 | 7.62
CN(C)c1ccncc1 | 0
N#Cc1ccc(C#N)c2ccccc12 | 0.0654
O=Cc1cc(C=O)cc(C=O)c1 | 0.0923
N#Cc1cc(F)cc(C#N)c1 | 0
Brc1c(Br)c(Br)c(Br)c(Br)c1Br | 0

SMILES | photocatalytic hydrogen evolution rate [µmol/h]
Cc1cc(Br)c(C)cc1Br | 0
Oc1cc2c3cc(O)c(O)cc3c3cc(O)c(O)cc3c2cc1O | 0.155
OB(O)c1cc(Br)cc(Br)c1 | 0
c1cc2cccc3c4cccc5cccc(c(c1)c23)c54 | 1.25
N#CCc1ccc(B(O)O)cc1 | 0
O=Cc1ccc(-c2ccc(C=O)cn2)nc1 | 0.927
N#CCC(=O)c1ccc(Br)cc1 | 0
O=Cc1cc(O)c(C=O)cc1O | 0
c1ccc2c(c1)ccc1c3ccccc3ccc21 | 0
CC1(C)OB(c2ccc3c(c2)[nH]c2ccccc23)OC1(C)C | 0
O=Cc1cccc(C=O)n1 | 0
Nc1ccc(S(=O)(=O)c2ccc(N)cc2)cc1 | 0.00797
Brc1ccc(Br)c2nccnc12 | 1.37
N#CCc1ccccc1-c1ccccc1CC#N | 0
N#Cc1c2ccccc2cc2ccccc12 | 0.294
O=C1C=CC(=O)c2c(O)cccc21 | 0
COc1ccnc(-c2cc(OC)ccn2)c1 | 0.169
N#Cc1cc(C#N)cc(C#N)c1 | 0.00175
CC1(C)OB(c2ccc(N)cc2)OC1(C)C | 0.0761
Brc1ccc(-c2ccc(Br)cc2)cc1 | 0
COC(=O)/C=C/c1ccccc1 | 0
O=Cc1ccc(Br)cn1 | 0
N#CC(C#N)=c1ccc(=C(C#N)C#N)cc1 | 0
N#Cc1cc(N)ccc1Cl | 0
S=C=Nc1cc(Br)ccc1Br | 0

SMILES | photocatalytic hydrogen evolution rate [µmol/h]
Cc1c(CBr)c(C)c(CBr)c(C)c1CBr | 0
Brc1ccc2ccc3c(Br)ccc4ccc1c2c43 | 0.16
O=S1(=O)c2ccc(Br)cc2-c2cc(Br)ccc21 | 0.009
COc1ccc(B(O)O)cc1C=O | 2.76
Cc1cc(C#N)ncc1Br | 0
Brc1ccc2ccc3cccc4ccc1c2c34 | 0.369
Fc1c(F)c(F)c(B(c2c(F)c(F)c(F)c(F)c2F)c2c(F)c(F)c(F)c(F)c2F)c(F)c1F | 0.0455
COc1c(Br)cc(Br)cc1Br | 0
O=C1c2ccccc2-c2ccc3c4ccc5c6c(ccc(c7ccc1c2c73)c64)C(=O)c1ccccc1-5 | 0.407
Nc1ccc(-c2ccc(-c3ccc(N)cc3)cc2)cc1 | 0
N#Cc1cc(N)c(N)cc1C#N | 0
COC(=O)c1cc(C(=O)OC)cc(C(=O)OC)c1 | 0.0198
N#Cc1cnccc1Br | 0.0501
N#CCc1ccc(C#N)cc1 | 0
Brc1ccc(I)cc1 | 0
N#Cc1cc(C#N)c(C#N)cc1C#N | 0
Fc1ccc(-c2nc(-c3ccccc3)nc(-c3ccccc3)n2)cc1 | 0
Fc1cc(Br)c(Br)cc1F | 0
Brc1ccc(-c2ccc(-c3ccc(Br)cc3)cc2)cc1 | 0
Oc1ccc(O)cc1 | 0
OC1c2ccccc2-c2ccccc21 | 0
COC(=O)c1cccc(C(=O)OC)c1 | 0.023
N#Cc1ccc(C(=O)c2ccc(C#N)cc2)cc1 | 4.66
C#Cc1cc(C(=O)O)cc(C(=O)O)c1 | 0
